US11766430B2, “Methods of using a phenoxypropylamine compound to treat pain” (Minerva Neurosciences, Inc., priority 2018, dated 2023)
Values joined by “and” are separate entries in the source; they are usually repeats but may differ in a detail not shown here. Equal values may be shown once.

System: carrageenan-induced mechanical hyperalgesia in rats
Assay: Carrageenan-induced mechanical hyperalgesia, paw pressure test, time course to 240 min (Example 2)
Assay type: in vivo, male Sprague-Dawley rats
Procedure: In this model, inflammation is induced by intraplantar injection of carrageenan (2%) into the right hindpaw of the rat. Three hours later, reaction thresholds are measured using the paw pressure test. Pressure is gradually applied to both hind paws (inflamed and control) of the rat, and reaction thresholds are determined as the pressure (g) required to elicit paw withdrawal or vocalization. Morphine (3 mg/kg, s.c.) was used as a positive control.
The experiments in this study used fifty (50) male Sprague-Dawley rats (SPF status, Janvier, France), each weighing 204-260 grams. The rats were housed in a temperature (20-24° C.) and relative humidity (45%-65%) controlled room and acclimated to an artificial day/night cycle of 12 hours light (6.30 a.m. to 6.30 p.m.)/12 hours darkness. Rats had free access to sterilized tap water and were fed ad libitum with pelleted complete diet (reference A04, S.A.F.E.). Rats were housed 4 per cage (cages Type E) and were acclimated for a period of at least 5 days before any testing. Each rat was identified by tail markings. Based on the SPF status of the animal facilities, there is no reason to expect that contaminants were present in the food, water or bedding, at levels capable of interfering with the results of the tests.
Pain Test: Static mechanical hyperalgesia was assessed using the Paw Pressure test or Randall & Selitto test (Randall, L. O. and Selitto, J. J., A method for measurement of analgesic activity on inflamed tissue, Arch Int Pharmacodyn, 1957(111): 409-419). This test requires the application of an increasing pressure on the hind paws between a flat surface and a blunt pointer. This test is usually used with animals with one hind paw inflamed by an injection or injured by ligation, and one normal hind paw, to evaluate drugs for analgesic action. The apparatus exerts a steadily increasing force and reaction threshold is determined as the pressure (g) required to elicit paw withdrawal and/or vocalization. In the experiment, animals were gently handled by the experimenter and static mechanical hyperalgesia was assessed. Each reaction threshold measurement was done for both hind paws.
Five (5) experimental groups of 10 rats each were used. Each group was first injected with of 100 μL of a 2% carrageenan suspension in the plantar aspect of the right hindpaw. Three hours after carrageenan injection, paw withdrawal threshold was measured using the paw pressure test (Baseline). The 5 groups were then administered the following: • Group 1: vehicle (0.5% HPMC), i.p., solution (negative control); • Group 2: MIN-117 (0.01 mg/kg, i.p.) in 0.5% HPMC, suspension; • Group 3: MIN-117 (0.1 mg/kg, i.p.) in 0.5% HPMC, suspension; • Group 4: MIN-117 (1 mg/kg, i.p.) in 0.5% HPMC, suspension; and • Group 5: morphine (3 mg/kg, s.c.) in 0.9% NaCl, solution (positive control).
After administering vehicle, MIN-117, or morphine, the antihyperalgesic effect of the compounds was evaluated using the paw pressure test at 0 min. (T0), 30 min., 60 min., 120 min., and 240 min.
Vehicle and MIN-117 were administered intraperitoneally at 10 mL/kg. Morphine was subcutaneously administered at 5 mL/kg. Dosing and testing were performed in a random order by a blinded experimenter except for the morphine-treated group. Doses were expressed in terms of free active substance. Rats were sacrificed at the end of the experiment by CO2 inhalation pending subsequent removal by a certified company.
Results were assessed as: the paw withdrawal threshold (mean±s.e.m.) in grams of contact pressure for each group, calculated from individual paw withdrawal thresholds; the percentage of variation of the paw withdrawal threshold calculated from the mean value of the vehicle-treated group; and/or the percentage of activity. To determine a statistical effect of the test substance and the reference substance, data were analyzed by a non-parametrical test. The significance level was p<0.05.

[1] = 0.01 mg/kg i.p., 30 min, hydrochloride
[2] = 0.01 mg/kg i.p., 60 min, hydrochloride
[3] = 0.01 mg/kg i.p., 120 min, hydrochloride
[4] = 0.01 mg/kg i.p., 240 min, hydrochloride
[5] = 0.01 mg/kg i.p., Baseline, hydrochloride
[6] = 0.01 mg/kg i.p., T0 (baseline before dosing)
[7] = 0.01 mg/kg i.p., T0 (baseline before dosing), hydrochloride
[8] = 0.01 mg/kg i.p., T0 + 30 min, hydrochloride
[9] = 0.01 mg/kg i.p., T0 + 60 min, hydrochloride
[10] = 0.1 mg/kg i.p., 30 min, hydrochloride
[11] = 0.1 mg/kg i.p., 60 min, hydrochloride
[12] = 0.1 mg/kg i.p., 120 min, hydrochloride
[13] = 0.1 mg/kg i.p., 240 min, hydrochloride
[14] = 0.1 mg/kg i.p., Baseline, hydrochloride
[15] = 0.1 mg/kg i.p., T0 (baseline before dosing)

For `Cc1nnc(-c2cc3c(OC[C@@H](O)CN4CCC(c5ccc(Cl)c(Cl)c5)CC4)cccc3o2)o1.Cl` [MIN-117, (2S)-1-(4-(3,4-dichlorophenyl)piperidin-1-yl)-3-((2-(5-methyl-1,3,4-oxadiazol-2-yl)benzofuran-4-yl)oxy)propan-2-ol hydrochloride], the “Nociceptive threshold, control paw, individual rats” value [1] was 360 g (4×) and 380 g (3×) and 420 g and 340 g and 280 g, the “Nociceptive threshold, injured paw, individual rats” value [1] was 180 g (3×) and 220 g and 160 g (2×) and 140 g (2×) and 200 g (2×) and the “Nociceptive threshold, control paw, individual rats” value [2] was 380 g and 340 g (3×) and 320 g (2×) and 360 g (2×) and 420 g and 300 g. For the same compound, the “Nociceptive threshold, injured paw, individual rats” value [2] was 220 g (3×) and 160 g (3×) and 180 g (2×) and 140 g (2×), the “Nociceptive threshold, control paw, individual rats” value [3] was 440 g and 360 g (2×) and 340 g and 320 g and 400 g (2×) and 420 g (2×) and 380 g and the “Nociceptive threshold, injured paw, individual rats” value [3] was 300 g and 180 g (2×) and 160 g (2×) and 200 g (4×) and 220 g. For the same compound, the “Nociceptive threshold, control paw, individual rats” value [4] was 340 g and 360 g (2×) and 380 g (2×) and 300 g and 320 g (3×) and 420 g, the “Nociceptive threshold, injured paw, individual rats” value [4] was 200 g (3×) and 180 g (4×) and 160 g (2×) and 140 g and the “Nociceptive threshold, control paw, individual rats” value [5] was 400 g (3×) and 380 g (3×) and 320 g and 360 g and 340 g (2×). For the same compound, the “Nociceptive threshold, injured paw, individual rats” value [5] was 240 g and 180 g (5×) and 200 g (2×) and 160 g (2×), the “% activity, injured paw” value [6] was 2% and the “% variation vs control paw, injured paw” value [6] was −50%. For the same compound, the “% variation vs vehicle-treated group, injured paw” value [6] was 2%, the “Nociceptive threshold, control paw (mean ± s.e.m.)” value [7] was 370.0 ± 9.1 g and 370 g and the “Nociceptive threshold, injured paw (mean ± s.e.m.)” value [7] was 186 ± 7.3 g and 186 g. The “% activity, injured paw” value (0.01 mg/kg i.p., T0 + 30 min) was −1%, the “% variation vs control paw, injured paw” value (0.01 mg/kg i.p., T0 + 30 min) was −51% and the “% variation vs pre-drug threshold, injured paw” value (0.01 mg/kg i.p., T0 + 30 min) was −5%. The “Nociceptive threshold, control paw (mean ± s.e.m.)” value (0.01 mg/kg i.p., T0 + 30 min) was 362 g, the “% variation vs vehicle-treated group, injured paw” value [8] was −1% and 1% and the “Nociceptive threshold, injured paw (mean ± s.e.m.)” value [8] was 176 ± 8.3 g and 176 g. For the same compound, the “% activity, injured paw” value (0.01 mg/kg i.p., T0 + 60 min) was −6%, the “% variation vs control paw, injured paw” value (0.01 mg/kg i.p., T0 + 60 min) was −49% and the “% variation vs pre-drug threshold, injured paw” value (0.01 mg/kg i.p., T0 + 60 min) was −4%. The “Nociceptive threshold, control paw (mean ± s.e.m.)” value (0.01 mg/kg i.p., T0 + 60 min) was 348 g, the “% variation vs vehicle-treated group, injured paw” value [9] was −5% and 5% and the “Nociceptive threshold, injured paw (mean ± s.e.m.)” value [9] was 178 ± 10.1 g and 178 g. For the same compound, the “% activity, injured paw” value (0.01 mg/kg i.p., T0 + 120 min) was 9%, the “% variation vs control paw, injured paw” value (0.01 mg/kg i.p., T0 + 120 min) was −48% and the “% variation vs pre-drug threshold, injured paw” value (0.01 mg/kg i.p., T0 + 120 min) was 8%. The “% variation vs vehicle-treated group, injured paw” value (0.01 mg/kg i.p., T0 + 120 min) was 8%, the “Nociceptive threshold, control paw (mean ± s.e.m.)” value (0.01 mg/kg i.p., T0 + 120 min) was 384 g and the “Nociceptive threshold, injured paw (mean ± s.e.m.)” value (0.01 mg/kg i.p., T0 + 120 min, hydrochloride) was 200 ± 12.6 g and 200 g. The “% activity, injured paw” value (0.01 mg/kg i.p., T0 + 240 min) was −5%, the “% variation vs control paw, injured paw” value (0.01 mg/kg i.p., T0 + 240 min) was −49% and the “% variation vs pre-drug threshold, injured paw” value (0.01 mg/kg i.p., T0 + 240 min) was −4%. The “% variation vs vehicle-treated group, injured paw” value (0.01 mg/kg i.p., T0 + 240 min) was −4%, the “Nociceptive threshold, control paw (mean ± s.e.m.)” value (0.01 mg/kg i.p., T0 + 240 min) was 350 g and the “Nociceptive threshold, injured paw (mean ± s.e.m.)” value (0.01 mg/kg i.p., T0 + 240 min, hydrochloride) was 178 ± 6.3 g and 178 g. The “Effect on injured paw withdrawal threshold vs vehicle-treated group (in words)” value (0.01 mg/kg i.p., time course 30-240 min) was “did not induce any significant increase”, the “Nociceptive threshold, control paw, individual rats” value [10] was 440 g and 320 g (3×) and 460 g and 300 g and 360 g and 340 g (3×) and the “Nociceptive threshold, injured paw, individual rats” value [10] was 200 g (4×) and 160 g (2×) and 180 g (4×). The “Nociceptive threshold, control paw, individual rats” value [11] was 360 g (3×) and 300 g (2×) and 420 g and 400 g and 320 g (2×) and 340 g, the “Nociceptive threshold, injured paw, individual rats” value [11] was 180 g (2×) and 140 g and 160 g (3×) and 200 g (3×) and 220 g and the “Nociceptive threshold, control paw, individual rats” value [12] was 380 g and 280 g and 420 g (2×) and 300 g and 340 g (3×) and 360 g (2×). For the same compound, the “Nociceptive threshold, injured paw, individual rats” value [12] was 160 g (3×) and 140 g and 220 g and 200 g (2×) and 180 g (3×), the “Nociceptive threshold, control paw, individual rats” value [13] was 400 g (2×) and 320 g and 340 g and 280 g and 360 g (3×) and 380 g and 300 g and the “Nociceptive threshold, injured paw, individual rats” value [13] was 180 g (3×) and 160 g (3×) and 140 g and 220 g (2×) and 200 g. The “Nociceptive threshold, control paw, individual rats” value [14] was 420 g (2×) and 380 g (2×) and 400 g (2×) and 360 g (2×) and 340 g and 320 g, the “Nociceptive threshold, injured paw, individual rats” value [14] was 200 g (3×) and 180 g (3×) and 160 g (4×) and the “% activity, injured paw” value [15] was −2%. The “% variation vs control paw, injured paw” value [15] was −53%, the “% variation vs vehicle-treated group, injured paw” value [15] was −2% and the “Nociceptive threshold, control paw (mean ± s.e.m.)” value (0.1 mg/kg i.p., T0 (baseline before dosing), hydrochloride) was 378.0 ± 10.5 g and 378 g.
